In publication PMC5817083, “Oligopeptide Targeting Sortase A as Potential Anti-infective Therapy for Staphylococcus aureus” (Frontiers in Microbiology, 2018):
Entries after “also recorded” stand apart in the source; their conditions may differ. Marks after values point to notes of the source that are not given here.

Assays:
[1] = biological target: T1, SrtAN114A (Staphylococcus aureus, UniProt Q2FV99, N114A); assay: SrtA activity inhibition assay, mutant SrtAN114A; assay type: biochemical; conditions: Figure 5C
T1 construct: GST (cleaved yes); made in house; host or cells: Escherichia coli BL21 (DE3)
Method: (§1) The procedures followed for expression and purification of the mutant proteins (SrtAN114A, SrtAC184A, and SrtAR197A) were identical to those followed for the wild-type protein (SrtAΔN59).
(§2) Site-directed mutagenesis for SrtAN114A, SrtAC184A, and SrtAR197A was conducted using a recombinant vector encoding SrtAΔN59 with a QuickChange Site-Directed Mutagenesis Kit (Stratagene, La Jolla, CA, United States). The primer pairs for these three mutations were as follows: N114A forward, 5′-[…]-3′; N114A reverse, 5′-[…]-3′; C184A forward, 5′-[…]-3′; C184A reverse, 5′-[…]-3′; R197A forward, 5′-[…]-3′; and R197A reverse, 5′-[…]-3′.
(§3) The inhibitory effect of the oligopeptide against SrtA and its mutants activity was determined as previously described in 96-well black plates (PerkinElmer, Boston, MA, United States) ([Wang et al., 2015c]). Briefly, 100 μL of purified SrtA ([…]) was preincubated with 100 μL of increasing concentrations of the oligopeptide (3.125–25 μM) in reaction buffer at 37°C for 20 min. The model fluorescent peptide substrate Dabcyl-[…]-Edans (GL Biochem, Shanghai, China) (final concentration of 10 μM) was added to the reaction system, followed by incubation at 37°C for 1 h. Fluorescence intensity was measured at […] wavelengths of 350 and 520 nm, respectively. The experiments were repeated three times independently for each sample.

[2] = biological target: T2, SrtAC184A (Staphylococcus aureus, UniProt Q2FV99, C184A); assay: SrtA activity inhibition assay, mutant SrtAC184A; assay type: biochemical; conditions: Figure 5C
T2 construct: GST (cleaved yes); made in house; host or cells: Escherichia coli BL21 (DE3)
Method: as §1, §2, §3

[3] = biological target: T3, SrtAR197A (Staphylococcus aureus, UniProt Q2FV99, R197A); assay: SrtA activity inhibition assay, mutant SrtAR197A; assay type: biochemical; conditions: Figure 5C
T3 construct: GST (cleaved yes); made in house; host or cells: Escherichia coli BL21 (DE3)
Method: as §1, §2, §3

[4] = biological target: T4, SrtAWT (Staphylococcus aureus, UniProt Q2FV99); assay: Fluorescence spectroscopy quenching binding constant, SrtAWT
T4 construct: GST (cleaved yes); made in house; host or cells: Escherichia coli BL21 (DE3)
Text: (§4) In this study, the fluorescence quenching method was used to measure the binding constants (KA) of ligands to proteins. A 280-nm excitation wavelength with 5-nm band pass and a 345-nm emission wavelength with 10-nm band pass were used for the measurements. Details of the measurement procedures have been described previously ([Bandyopadhyay et al., 2002]; [Jurasekova et al., 2009]).

[5] = biological target: T1, SrtAN114A; assay: Fluorescence spectroscopy quenching binding constant, SrtAN114A
Text: as §4

[6] = biological target: T2, SrtAC184A; assay: Fluorescence spectroscopy quenching binding constant, SrtAC184A
Text: as §4

[7] = biological target: T3, SrtAR197A; assay: Fluorescence spectroscopy quenching binding constant, SrtAR197A
Text: as §4

[8] = system: MRSA strain USA 300; assay: Broth microdilution MIC; assay type: cell-based, Staphylococcus aureus; conditions: for anti-S. aureus (bacteriostatic) activity: at concentrations that inhibit SrtA activity
Method: (§5) The broth microdilution method was used to determine the minimum inhibitory concentration (MIC) of the oligopeptide against the MRSA strain USA 300 according to the NCCLS guideline M31-A2. For the growth curve experiment, an overnight bacterial culture was inoculated in fresh TSB (1:100) with the indicated concentrations of the oligopeptide, and the optical density (OD) at 600 nm was measured for each sample at 1-h intervals.

[9] = system: S. aureus USA 300; assay: Growth curve experiment (OD 600 nm); assay type: cell-based, Staphylococcus aureus; conditions: USA 300 in TSB, oligopeptide 3.125–25 μM
Method: as §5

[10] = system: surface protein A display on S. aureus; assay: Immunofluorescence assay of surface protein A; assay type: cell-based, Staphylococcus aureus; conditions: S. aureus cultured with oligopeptide 37°C 2.5 h, confocal microscopy
Method: Detection of surface protein A by immunofluorescence analysis was performed as described previously ([Chen et al., 2014]). Briefly, S. aureus were cultured in TSB with or without the oligopeptide at 37°C for 2.5 h, pelleted by centrifugation (3,000 × g, 10 min), washed three times with PBS, blocked with 2% BSA for 1 h at 37°C, stained with fluorescein isothiocyanate (FITC)-labeled goat anti-rabbit IgG for 2 h at 37°C, and observed under a laser scanning confocal microscope (Olympus, Tokyo, Japan).

[11] = system: S. aureus USA 300 adherence to bovine fibronectin; assay: Fibronectin-binding assay; assay type: cell-based, Staphylococcus aureus; conditions: USA 300 treated with oligopeptide, crystal violet OD570 nm
Method: Ninety-six-well flat-bottom polystyrene plates were coated with 100 μL of 2 μg/mL fibronectin in PBS (fibronectin from bovine plasma; Sigma–Aldrich, St. Louis, MO, United States) per well and incubated at 4°C overnight. Each well was washed three times with PBS and blocked with 5% BSA in PBS at 37°C for 2 h. An overnight bacterial culture was inoculated in fresh TSB (1:100, OD600 nm ≈ 0.2) with the indicated concentrations of the oligopeptide and incubated until the OD600 nm reached 0.5. Then, the cells were centrifuged at 5000 × g for 10 min and resuspended in PBS to an OD600 nm of 1.0. One hundred microliters of bacterial suspension were added to each fibronectin-coated plate well as described above, and the plates were incubated at 37°C for 2 h. After removal of the cell suspension, 25% (v/v) formaldehyde was added to fix S. aureus. Then, the bacteria attached to fibronectin were stained with 100 μL of 0.4% crystal violet dye for 20 min at 37°C after being washed once with PBS. Following removal of the supernatant, adherence was quantified by measuring the OD570 nm for each well. USA 300 without the oligopeptide was used as a positive control, and PBS was used as a negative control.

[12] = system: S. aureus invasion into J774 cells; assay: Invasion assay in J774 cells; assay type: cell-based, Staphylococcus aureus; conditions: 25 μM oligopeptide, infection 1 h, CFU of lysed cells
Method: J774 cells were adjusted to 4 × 10^5 per glass slide in 24-well plates in Dulbecco’s […] essential medium (DMEM) supplemented with 10% fetal bovine serum (FBS) and cultured in an incubator at 5% CO2 and 37°C overnight. An overnight bacterial culture was inoculated in fresh TSB (1:100, OD600 nm ≈ 0.2) with the indicated concentrations of the oligopeptide and incubated until the OD600 nm reached 1.0. Then, the bacteria were resuspended in DMEM containing 10% FBS at a concentration of 1 × 10^8 CFU/mL, and 1 mL of the resuspension was added to each well for infection at 37°C for 1 h. Invasion was terminated by incubation with 300 μg/mL gentamicin for 30 min. After three washes with PBS, coverslips were placed in 0.2% Triton X-100 with vigorous vortexing, and the diluted lysates were plated onto TSB agar plates to enumerate the number of bacteria associated with each sample.

[13] = system: S. aureus-induced mastitis; assay: Mouse mastitis model of S. aureus infection; assay type: in vivo, BALB/c mice; conditions: for protection against S. aureus-induced mastitis: mouse model
Method: BALB/c mice (from the Experimental Animal Center of Jilin University) were obtained and housed under specific pathogen-free conditions. All animal studies were approved by and conducted in accordance with the guidelines of the Animal Welfare and Research Ethics Committee of Jilin University. An overnight bacterial culture was inoculated in fresh TSB broth (1:100, OD600 nm ≈ 0.2) and incubated until the OD600 nm reached 0.8. Cells were harvested by centrifugation at 3,000 × g for 10 min, washed three times with PBS, and resuspended in PBS to a concentration of 1 × 10^9 CFU/mL for the mastitis infection experiment.
For establishment of a mastitis model of infection, lactating BALB/c mice, 10–12 weeks of age and weighing 30–32 g, were anesthetized using sodium pentobarbital and infected by injecting the canal glands with 50 μL of staphylococcal suspension per breast. The infected mice were administered 50 mg/kg of the oligopeptide subcutaneously at the time of infection and then at 12-h intervals. The control mice received an equal volume of PBS at the same time points. To evaluate the pathological correlates of mastitis, mammary gland tissues isolated from sacrificed mice at 48 h post-infection were fixed in 4% paraformaldehyde, stained with hematoxylin and eosin, and visualized by light microscopy. Furthermore, additional mammary gland tissues from the mice sacrificed at 48 h post-infection were homogenized in PBS containing 2% Triton X-100, after which they were appropriately diluted and inoculated onto TSB agar plates for assessment of the bacterial burden. The levels of the inflammatory cytokines IL-1β, IL-6, and TNF-α in the supernatants were measured using ELISA kits.

[14] = biological target: T5, SrtA (SrtAΔN59) (Staphylococcus aureus, UniProt Q2FV99); assay: SrtA activity inhibition assay (fluorescent substrate Dabcyl-[…]-Edans); assay type: biochemical; conditions: purified SrtA preincubated with oligopeptide 3.125–25 μM, 37°C 20 min; substrate 10 μM, 1 h
T5 construct: GST (cleaved yes); made in house; host or cells: Escherichia coli BL21 (DE3)
Method: An Escherichia coli BL21 (DE3) strain harboring a recombinant vector encoding SrtA∆N59 was used, as described previously ([Wang et al., 2015c]). Cells were cultured overnight at 16°C with 1 mM isopropyl-β-D-thiogalactopyranoside (IPTG, Invitrogen, Carlsbad, CA, United States) in TSB containing ampicillin to induce SrtA expression until the OD600 reached 0.6 ∼ 0.8. Then, the cells were harvested by centrifugation at 5,500 × g for 10 min, resuspended in reaction buffer (50 mM Tris-HCl, 5 mM CaCl2, and 150 mM NaCl, pH 7.5) and lysed by sonication. […] The bound GST-tagged proteins were incubated with Precision Protease at 4°C overnight prior to elution with reaction buffer. Purified SrtA proteins were concentrated to […] via centrifugal filtration (Millipore, Bedford, MA, United States) and subsequently analyzed by SDS-PAGE.
The inhibitory effect of the oligopeptide against SrtA and its mutants activity was determined as previously described in 96-well black plates (PerkinElmer, Boston, MA, United States) ([Wang et al., 2015c]). Briefly, 100 μL of purified SrtA ([…]) was preincubated with 100 μL of increasing concentrations of the oligopeptide (3.125–25 μM) in reaction buffer at 37°C for 20 min. […] Fluorescence intensity was measured at […] wavelengths of 350 and 520 nm, respectively. […]

Row | Substance | sensitivity of SrtAN114A to oligopeptide-induced inhibition compared to wild-type SrtA [1] | sensitivity of SrtAC184A to oligopeptide-induced inhibition compared to wild-type SrtA [2] | sensitivity of SrtAR197A to oligopeptide-induced inhibition compared to wild-type SrtA [3] | binding constant KA [4] | binding constant KA [5] | binding constant KA [6] | binding constant KA [7] | MIC ([8]; MRSA USA 300, broth microdilution) | anti-S. aureus (bacteriostatic) activity [8] | anti-S. aureus (bacteriostatic) activity ([8]; listed as oligopeptide) | growth of S. aureus [9] | display (anchoring) of surface protein A, binding of FITC-conjugated IgG [10] | adherence to fibronectin [11] | invasion of S. aureus into J774 cells [12] | inflammatory responses and pathological changes of mammary gland tissues ([13]; lactating BALB/c mice, 50 mg/kg at infection then 12-h intervals, 48 h post-infection, vs PBS, listed as oligopeptide, 50 mg/kg) | levels of cytokines IL-1β, IL-6 and TNF-α in mammary gland tissues ([13]; lactating BALB/c mice, 50 mg/kg, 48 h post-infection, ELISA) | bacterial burden in mammary gland tissues ([13]; lactating BALB/c mice, 50 mg/kg, 48 h post-infection, vs PBS-treated control) | protection against S. aureus-induced mastitis [13] | protection against S. aureus-induced mastitis ([13]; listed as oligopeptide) | IC50 [14]
1 | LPRDA | significantly decreased | significantly decreased | significantly decreased | 6.6 ± 1.3 (1 × 10^4) L⋅mol^-1 | 4.2 ± 1.1 (1 × 10^4) L⋅mol^-1 | 5.1 ± 1.2 (1 × 10^4) L⋅mol^-1 | 5.0 ± 1.4 (1 × 10^4) L⋅mol^-1 | greater than 200 μM | without anti-S. aureus activity | no anti-Staphylococcus aureus activity; also recorded: no bacteriostatic activity | not visibly affected | significantly hindered the binding of FITC-conjugated IgG; also recorded: decreased | decreased adherence | significant anti-invasive activity | effectively alleviated; also recorded: Significant alleviation; also recorded: remarkably alleviated | significantly reduced | significant decrease | conferred effective protection | provided protection | –
2 | LPRDA (PEG2000-LPRDA-NH2) | – | – | – | – | – | – | – | – | – | – | – | – | – | – | – | – | – | – | – | 10.6 µM
